Patent publication US12466818B2, “Thienyl-aniline compounds for treatment of dermal disorders” (NFlection Therapeutics, Inc., priority 2018, dated 2025)
Where a name gives a salt, the structure may show the parent alone.

What was measured:
[1] = Assay 6: liver microsomes half-life stability assay; type: in vitro ADME; conditions: pH 7.4; human liver microsomes, 1 μM test compound, NADPH
Procedure: Metabolic stability of testing compound can be evaluated using human liver microsomes to predict intrinsic clearance. Human liver microsomes are obtained from Corning Gentest.
The assay was carried out in 96-well microtiter plates at 37° C. Reaction mixtures (25 μL) contain a final concentration of 1 μM test compound, 0.5 mg/mL liver microsomes protein, and 1 mM NADPH in buffer (100 mM potassium phosphate, pH 7.4 buffer with 3 mM MgCl2). At each of the time points (0, 15, 30, and 60 minutes), 150 μL of quench solution (100% acetonitrile with 0.1% formic acid) with internal standard was transferred to each well. Verapamil was included as a positive control to verify assay performance. Plates were sealed and centrifuged at 4° C. for 15 minutes at 4000 rpm. The supernatant was transferred to fresh plates for LC/MS/MS analysis.
(§1) All samples were analyzed on LC/MS/MS using an AB Sciex API 4000 instrument, coupled to a Shimadzu LC-20AD LC Pump system. […]
The extent of metabolism was calculated as the disappearance of the test compound, compared to the 0-min time incubation. Initial rates were calculated for the compound concentration and used to determine t1/2 values and subsequently, the intrinsic clearance, CLint=(0.693)(1/t1/2 (min))(g of liver/kg of body weight)(mL incubation/mg of microsomal protein)(45 mg of microsomal protein/g of liver weight). […]

[2] = Assay 4: liver S9 half-life stability assay; type: in vitro ADME; conditions: liver S9 fraction, pH 7.4; human liver S9, 1 μM test compound, NADPH
Procedure: (§2) Compounds can be assessed for metabolic stability in human skin by assessing their rate of disappearance from human S9 skin fraction. Similarly, compounds can be assessed for metabolic stability in human liver by assessing their rate of disappearance from human S9 liver fraction. The protocol below is used to assess the difference between skin and hepatic metabolism.
(§3) The assay was carried out in 96-well microtiter plates at 37° C. Reaction mixtures (25 μL) contained a final concentration of 1 μM test compound, 2 mg/mL liver or skin protein, and 1 mM NADPH in buffer (100 mM potassium phosphate, pH 7.4 buffer with 1 mM EDTA, 3 mM MgCl2). At each of the time points (0, 15, 30, and 60 minutes), 150 μL, of quench solution (100% acetonitrile with 0.1% formic acid) with internal standard was transferred to each well. […]
as §1
(§4) The extent of metabolism was calculated as the disappearance of the test compound, compared to the 0-min control reaction incubations. Initial rates were calculated for the compound concentration and used to determine tin values and subsequently, the intrinsic clearance, CLint=(0.693)(1/t1/2 (min)) (mL incubation/mg of S9 protein). […]

[3] = tested on: A375 cells; assay: Assay 2: A375 (BRAF) GI50 cell-based assay (Cell Titer-Glo); conditions: Homo sapiens, A-375, 72 hours
Procedure: (§5) Alternatively, the following procedure can be used to measure cell-based activity. Test compounds were dissolved in DMSO in 10 mM stock. Cell Titer-Glo® 2.0 Luminescent cell viability assay reagent was purchased from Promega (Madison, WI). A375 and HCT116 cell lines were purchased from American Type Culture Collection (Manassas, VA). For A375 cells, cell culture media was DMEM+10% FBS. For HCT116 cells, cell culture media was McCoy's 5A+10% FBS. All media were supplemented with 100 μg/mL of penicillin, and 100 μg/mL of streptomycin. Cultures were maintained at 37° C. in a humidified atmosphere of 5% CO2 and 95% air.
(§6) Test compounds were diluted in DMSO solution with 10-dose and 3-fold dilutions in a source plate starting at 10 mM. 25 nL of each test compound was delivered from the source plate to each well of the 384-well cell culture plates (T=Final) by Echo 550. 25 μL of culture medium containing 2000 of A375 or HCT116 cells was added to each of the wells in duplicates of the cell culture plates (T=0 and T=Final). 25 μL of Cell Titer Glo 2.0 reagent was added to each well of cell culture plate (T=0). The contents were mixed on an orbital shaker for 2 min and incubated at room temperature for 15 min to stabilize luminescent signal. Luminescence was recorded by Envision 2104 Multilabel Reader (PerkinElmer, Santa Clara, CA). The number of viable cells in culture was determined based on quantitation of the ATP present in each culture well. The cells in cell culture plate (T=Final) were incubated with the compounds at 37° C., 5% CO2 for 72 hours. 25 μL of Cell Titer Glo 2.0 reagent was added to each well. The contents were mixed on an orbital shaker for 2 min and incubated at room temperature for 15 min to stabilize luminescent signal. Luminescence was recorded by Envision 2104 Multilabel Reader (PerkinElmer, Santa Clara, CA). The number of viable cells in culture was determined based on quantitation of the ATP present in each culture well. The GI50 curves were plotted using the GraphPad Prism 4 program based on a sigmoidal dose-response equation Y=Bottom+(Top-Bottom)/(1+10^((Log EC50−X)*HillSlope)). All parameters in the equation were calculated by GraphPad Prism 4 program. […] Accordingly, GI50 is the value of 10^X, where X was calculated by the Curve Fitting Equation when Y=50 using Excel.
Assay 2 is the A375 (BRAF) GI50 (nM) cell-based assay as described in Example 39. A2 indicates an IC50 of less than or equal to 1 μM, and B2 indicates an IC50 of greater than 1 μM and less than or equal to 2 μM.

[4] = Assay 5: skin S9 half-life stability assay; type: in vitro ADME; conditions: skin S9 fraction, pH 7.4; human skin S9, 1 μM test compound, NADPH
Procedure: as §2, §3, §1, §4

[5] = tested on: HCT116 cells; assay: Assay 3: HCT116 (Kras) GI50 assay (Cell Titer-Glo); type: cell-based; conditions: Homo sapiens, HCT-116, 72 hours
Procedure: as §5, §6
Assay 3 is the HCT116 (Kras) GI50 (nM) assay as described in Example 39. A3 indicates an IC50 of less than or equal to 5 μM, and B3 indicates an IC50 of greater than 5 μM and less than or equal to 10 μM.

[6] = target: MEK1 (Homo sapiens (Human), UniProt Q02750); assay: MEK Inhibition Assay-2 (Z'-LYTE biochemical assay); conditions: Z'-LYTE assay of Example 37; read-out: IC50 against MEK1
Procedure: MEK1 inhibitory activity of compounds were tested using the following procedure (protocol available at thermofisher.com/content/dam/LifeTech/migration/files/drug-discovery/pdfs.par.60256.file.dat/20130430%20ssbk %20customer %20protocol %20 and %20assa y %20conditions.pdf). The Z′-LYTE biochemical assay (ThermoFisher) employs a fluorescence-based, coupled-enzyme format and is based on the differential sensitivity of phosphorylated and non-phosphorylated peptides to proteolytic cleavage.
Test compounds in 100% DMSO were screened in 1% DMSO (final) in the well. For 10 point titrations, 3-fold serial dilutions are conducted from the starting concentration of 30 μM.
After the 1 hour incubation, 5 μL of a 1:1024 dilution of Development Reagent A (available from Invitrogen, catalog no. PV3295) was added.
ATP solutions were diluted to a 4× working concentration in Kinase Buffer (50 mM HEPES pH 7.5, 0.01% BRIJ-35, 10 mM MgCl2, 1 mM EGTA). ATP Km apparent was previously determined using a Z′-LYTE assay. The Development Reagent was diluted in Development Buffer (available from Invitrogen, catalog no. P3127).
Assay Protocol: 2.5 μL of 4× test compound or 100 nL of 100× Test Compound plus 2.4 μL Kinase Buffer, 5 μL of the 2× Peptide/Kinase Mixture, 2.5 μL of 4×ATP Solution were added to the plates and placed on a shake plate for 30-seconds. The kinase reaction was allowed to proceed for 60-minute at room temperature, before 5 μL of Development Reagent Solution was added, and the mixture agitated for 30-seconds on a shake plate. The mixture was incubated for 60-minute at room temperature. Fluorescence was measured using a plate reader and the data were analyzed.
This control yielded 100% cleaved peptide in the Development Reaction. The 100% Phosphorylation Control, which consisted of a synthetically phosphorylated peptide of the same sequence as the peptide substrate, was designed to allow for the calculation of percent phosphorylation. This control yielded a very low percentage of cleaved peptide in the Development Reaction. The 0% Phosphorylation and 100% Phosphorylation Controls allow for the calculation of the percent phosphorylation achieved in a specific reaction well.
The minimum emission ratio in a screen was established by the 0% Inhibition Control, which contained active kinase. This control was designed to produce a 10-50% phosphorylated peptide in the Kinase Reaction. Cascade assays may produce up to 70% phosphorylated peptide.
A known inhibitor control standard curve, 10 point titration, was run for each individual kinase on the same plate as the kinase to ensure the kinase was inhibited within an expected IC50 range previously determined.
The following controls are prepared for each concentration of Test Compound assayed. […] The expected value for a non-interfering compound should be 100%. Any value outside of 90% to 110% was flagged. […] The expected value for a non-fluorescence compound should be 0%. Any value>20% was flagged.
The data in Table A was calculated. XLfit from IDBS was used. The dose response curve was curve fit to model number 205 (sigmoidal dose-response model).
Table 3 lists the MEK1 inhibition assay results of selected compounds according to the above procedure.

Sequence of MEK1 (Q02750 whole entry): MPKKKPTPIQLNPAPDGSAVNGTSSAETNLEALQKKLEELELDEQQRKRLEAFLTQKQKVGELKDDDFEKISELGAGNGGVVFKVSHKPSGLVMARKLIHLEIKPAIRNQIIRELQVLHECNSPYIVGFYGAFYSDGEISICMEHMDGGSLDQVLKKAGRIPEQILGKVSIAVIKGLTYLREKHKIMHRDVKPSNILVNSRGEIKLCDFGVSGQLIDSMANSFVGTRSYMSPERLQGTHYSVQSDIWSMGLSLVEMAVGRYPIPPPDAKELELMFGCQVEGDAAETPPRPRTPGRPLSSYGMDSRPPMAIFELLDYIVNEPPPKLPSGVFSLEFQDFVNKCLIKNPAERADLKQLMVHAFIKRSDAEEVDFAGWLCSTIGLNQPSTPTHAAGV

Row | SMILES | GI50 [3] | GI50 [5] | IC50 [6] | further results
1 | CC(=O)c1sc(Nc2ccc(I)cc2F)c(C(=O)N[C@@H]2CCCNC2)c1C [Compound 1.016, (R)-5-acetyl-2-((2-fluoro-4-iodophenyl)amino)-4-methyl-N-(piperidin-3-yl)thiophene-3-carboxamide] | 1000 to 2000 nM | ≤ 5000 nM | – | –
2 | O=C1CCCc2c1sc(Nc1ccc(I)cc1F)c2C(=O)NOC[C@H](O)CO [Compound 1.030, (R)—N-(2,3-Dihydroxypropoxy)-2-((2-fluoro-4-iodophenyl)amino)-7-oxo-4,5,6,7-tetrahydrobenzo[b]thiophene-3-carboxamide] | – | – | ≤ 150 nM | –
3 | O=C1CCCc2c1sc(Nc1ccc(I)cc1F)c2C(=O)NOCC1CC1 [Compound 1.032, N-(Cyclopropylmethoxy)-2-((2-fluoro-4-iodophenyl)amino)-7-oxo-4,5,6,7-tetrahydrobenzo[b]thiophene-3-carboxamide] | ≤ 1000 nM | ≤ 5000 nM | ≤ 150 nM | –
4 | NCCONC(=O)c1c(Nc2ccc(I)cc2F)sc2c1CCCC2=O [Compound 1.033, N-(2-Aminoethoxy)-2-(2-fluoro-4-iodophenylamino)-7-oxo-4,5,6,7-tetrahydrobenzo[b]thiophene-3-carboxamide hydrochloride] | – | – | ≤ 150 nM | –
5 | O=C1CCCc2c1sc(Nc1ccc(I)cc1F)c2C(=O)NC[C@H](O)CO [Compound 1.034, (S)—N-(2,3-dihydroxypropyl)-2-((2-fluoro-4-iodophenyl)amino)-7-oxo-4,5,6,7-tetrahydrobenzo[b]thiophene-3-carboxamide] | – | – | ≤ 150 nM | –
6 | O=C1CCCc2c1sc(Nc1ccc(I)cc1F)c2C(=O)NC[C@@H](O)CO [Compound 1.035, (R)—N-(2,3-dihydroxypropyl)-2-((2-fluoro-4-iodophenyl)amino)-7-oxo-4,5,6,7-tetrahydrobenzo[b]thiophene-3-carboxamide] | – | – | ≤ 150 nM | –

Continued, in another order:

Row | GI50 [3] | GI50 [5] | IC50 [6] | SMILES | further results
7 | ≤ 1000 nM | ≤ 5000 nM | – | CC(=O)c1sc(Nc2ccc(I)cc2F)c(C(=O)NOCCO)c1C [Compound 1.013, 5-Acetyl-2-((2-fluoro-4-iodophenyl)amino)-N-(2-hydroxyethoxy)-4-methylthiophene-3-carboxamide] | half-life at 1 μM [1]: ≤ 50 min; half-life at 1 μM [2]: ≤ 50 min; half-life at 1 μM [4]: ≥ 400 min
8 | 1000 to 2000 nM | ≤ 5000 nM | – | CC(=O)c1sc(Nc2ccc(I)cc2F)c(C(=O)N[C@@H]2CCNC2)c1C [Compound 1.017, (R)-5-acetyl-2-((2-fluoro-4-iodophenyl)amino)-4-methyl-N-(pyrrolidin-3-yl)thiophene-3-carboxamide] | –
9 | ≤ 1000 nM | 5000 to 10000 nM | – | CC(=O)c1sc(Nc2ccc(I)cc2F)c(C(=O)NCC(C)(C)N)c1C [Compound 1.020] | –
10 | ≤ 1000 nM | 5000 to 10000 nM | – | CC(=O)c1sc(Nc2ccc(I)cc2F)c(C(=O)NOCC2CC2)c1C [Compound 1.023] | –
